From publication PMC11480511 (Scientific Reports, 2024) come the findings set out here.

By inhibition is commonly meant the change of the read-out against control, counted positive when it falls.

One test relates to CCRF-CEM. The test can be described thus: NCI single-dose growth inhibition screen. It is filed as cell-based. Particulars: Homo sapiens; Leukemia CCRF-CEM; single dose 10^−5 M.
For another test, the system named is K-562. The test is described as follows: NCI single-dose growth inhibition screen. It is filed as cell-based. The settings on record: Homo sapiens, K562; Leukemia K-562; single dose 10^−5 M.
For another test, the system named is SR. The test is described as follows: NCI single-dose growth inhibition screen. Particulars: Homo sapiens; Leukemia SR; single dose 10^−5 M. It is filed as cell-based.
In the next test the test system is A549/ATCC. The test is described as follows: NCI single-dose growth inhibition screen. The settings on record: Homo sapiens; Non-Small Cell Lung Cancer A549/ATCC; single dose 10^−5 M. In kind it is cell-based.
A further test concerns EKVX. The test can be described thus: NCI single-dose growth inhibition screen. Particulars: Homo sapiens; Non-Small Cell Lung Cancer EKVX; single dose 10^−5 M. In kind it is cell-based.
The next test deals with SF-268. The test is described as follows: NCI single-dose growth inhibition screen. The settings on record: Homo sapiens; CNS Cancer SF-268; single dose 10^−5 M. In kind it is cell-based.
The test system of another test is SF-539. The test is described as follows: NCI single-dose growth inhibition screen. In kind it is cell-based. Particulars: Homo sapiens; CNS Cancer SF-539; single dose 10^−5 M.
In another test the test system is SNB-19. The test is described as follows: NCI single-dose growth inhibition screen. It is filed as cell-based. Particulars: Homo sapiens; CNS Cancer SNB-19; single dose 10^−5 M.
A further test relates to M14. The test is described as follows: NCI single-dose growth inhibition screen. Particulars: Homo sapiens; Melanoma M14; single dose 10^−5 M. In kind it is cell-based. As for the experimental part:
Following the guidelines established by the drug evaluation department of the National Cancer Institute (NCI), USA, all target compounds 3a–l were examined against 60 cancer cell lines at a single concentration of 10 µM.
The anti-cancer potential of the tested compounds was evaluated at the National cancer institute (NCI), USA, against 9 panels of 60 various cell lines derived from nine human tumours available usually at NCI library. The procedures for the screening were described in details in NCI website (dttp://www.dtp.nci.nih.gov.) and were done according to NCI protocols[60] . The anticancer screening was carried out at single dose of 10^−5 M, NCI, Bethesda, USA. The results obtained as growth inhibition (%).

The test system of the next test is MDA-MB-435. The test can be described thus: NCI single-dose growth inhibition screen. In kind it is cell-based. Particulars: Homo sapiens; Melanoma MDA-MB-435; single dose 10^−5 M.
A further test relates to SK-MEL-28. The test can be described thus: NCI single-dose growth inhibition screen. Particulars: Homo sapiens; Melanoma SK-MEL-28; single dose 10^−5 M. In kind it is cell-based.
The test system of a further test is OVCAR-4. The test can be described thus: NCI single-dose growth inhibition screen. It is filed as cell-based. The settings on record: Homo sapiens; Ovarian Cancer OVCAR-4; single dose 10^−5 M.
A further test concerns 786-0. The test is described as follows: NCI single-dose growth inhibition screen. In kind it is cell-based. Particulars: Homo sapiens; Renal Cancer 786-0; single dose 10^−5 M.
A further test has as its system A498. The test is described as follows: NCI single-dose growth inhibition screen. It is filed as cell-based, human. Particulars: single dose 10^−5 M; for inhibition at 10 µM: Homo sapiens, A498, Renal Cancer A498; for Growth Inhibition (%): Renal Cancer A498.
In a further test the test system is CAKI-1. The test can be described thus: NCI single-dose growth inhibition screen. It is filed as cell-based. Particulars: Homo sapiens; Renal Cancer CAKI-1; single dose 10^−5 M.
The next test deals with UO-31. The test can be described thus: NCI single-dose growth inhibition screen. In kind it is cell-based, human. The settings on record: Homo sapiens, UO-31, Renal Cancer UO-31; single dose 10^−5 M.
In the next test the test system is MDA-MB231. The test can be described thus: NCI single-dose growth inhibition screen. In kind it is cell-based. The settings on record: Homo sapiens, MDA-MB-231; Breast Cancer MDA-MB231; single dose 10^−5 M.
Another test concerns DU-145. The test can be described thus: NCI single-dose growth inhibition screen. It is filed as cell-based. The settings on record: Homo sapiens; Prostate Cancer DU-145; single dose 10^−5 M.
For a further test, the system named is S. aureus ATCC 6538. The test is described as follows: Antibacterial screening, agar cup diffusion method. The settings on record: Gram + ve strain; for MIC: Staphylococcus aureus, ATCC6538, read-out: Minimum inhibitory concentrations (MIC, µM) S. aureus ATCC 6538. In kind it is cell-based.
Test [1] concerns K. pneumoniae ATCC 10,031. The test is described as follows: Antibacterial screening, agar cup diffusion method. It is filed as cell-based. The settings on record: read-out: Minimum inhibitory concentrations (MIC, µM) K. pneumoniae ATCC 10,031.
Protocol: (§1) Anti-bacterial activity of the recently synthesized compounds 3a-k was evaluated at AUMC (Assiut University Mycological Centre), Assiut, Egypt. Assays were done against Gram-negative strains of K. pneumoniae (ATCC 100310, E. coli (ATCC 25922), Pseudomonas aeruginosa (ATCC 27853) and the Gram-positive S. aureus (ATCC 6538) strain utilizing standard agar cup diffusion method. The isolates from the four bacterial species examined were kept in TSB (Trypticase Soya Broth, Becton and Dickinson) with 10% glycerol at -70 °C and then subcultured on TSA (Trypticase Soya Agar, Becton and Dickinson) and TSB for 24 h at 37 °C former to inoculation. Bacterial isolates were then plated on sterile petri plates with 1 × 10^8 CFU/mL (0.5 McFarland turbidity) and 20 mL of Mueller Hinton Agar media (Oxoid) was then loaded. To ensure that the microorganisms were evenly dispersed, the plates were gently rotated before being left to harden on a level surface. Four equally spaced spherical-shaped wells (10 mm diameter) were painstakingly drilled using a sterilized cork bore after media solidification. All tested compounds under test underwent two-fold serial dilutions in a sequential manner. Three replications of 100 µL of each concentration were added to a well using a micropipette. Plates were then incubated for 24-hour at 37 °C. The average of the inhibition zones was then calculated. To determine the MICs, the natural logarithm of each diluted test substance’s concentration was plotted against the average area of the related inhibition zone. Following that, a regression line was created and the intercept on the ‘ln concentration” axis was determined, and the antilogarithm was calculated to indicate the MIC value[34],[63].
The mark [2] stands for this setting: Klebsiella pneumoniae, ATCC10, Gram –ve strain.

In brackets after ≈: the same amount, converted by molar mass. Where two headings read alike, the source gives them in different places. Bounds are passed on as bounds.

Protocol for S. aureus ATCC 6538: as §1

`O=C(O)c1cn(C2CC2)c2cc(N3CCN(C(=O)CCCN4C(=O)SC(=Cc5cccc([N+](=O)[O-])c5)C4=O)CC3)c(F)cc2c1=O` [3d, 1-cyclopropyl-6-fluoro-7-[4-[4-[5-[(3-nitrophenyl)methylene]-2,4-dioxo-thiazolidin-3-yl]butanoyl]piperazin-1-yl]-4-oxoquinoline-3-carboxylic acid]: the inhibition at 10 µM is less than 0% in the test on CCRF-CEM; less than 0% in the test on K-562; less than 0% with SR; 7.8% in the test on A549/ATCC; 2.3% with EKVX; 2.4% with SF-268. Also, the inhibition at 10 µM in the test with SF-539 is 9.5%; in the test on SNB-19, 1%; in the test on M14 it was 0.8%; with MDA-MB-435, less than 0%; in the test on SK-MEL-28 it was less than 0%; with OVCAR-4, 2.6%. Also, the inhibition at 10 µM in the test with 786-0 is 8.5%; in the test on A498, 8.9%; in the test on CAKI-1 it was 5%; in the test with UO-31 it was 20.7%; in the test with MDA-MB231, 8%; in the test with DU-145, less than 0%. The MIC in the test with S. aureus ATCC 6538 is more than 20 µM; in test [1] (Gram –ve strain), 0.13 µM (≈ 0.0845 µg/mL); in [1] (setting [2]) it was 0.13 to 0.8 µM (≈ 0.0845 to 0.52 µg/mL).
For the compound `COc1ccc(C=C2SC(=O)N(CCCC(=O)N3CCN(c4cc5c(cc4F)c(=O)c(C(=O)O)cn5C4CC4)CC3)C2=O)cc1` [3e, 1-cyclopropyl-6-fluoro-7-[4-[4-[5-[(4-methoxyphenyl)methylene]-2,4-dioxo-thiazolidin-3-yl]butanoyl]piperazin-1-yl]-4-oxoquinoline-3-carboxylic acid], the inhibition at 10 µM is less than 0% in the test with CCRF-CEM; less than 0% with K-562; 4.3% with SR; 7.9% in the test on A549/ATCC; 0.4% with EKVX; 2.3% with SF-268. Also, the inhibition at 10 µM in the test on SF-539 was 6.5%; in the test with SNB-19, 3.8%; in the test on M14 it was less than 0%; with MDA-MB-435 it was less than 0%; with SK-MEL-28, less than 0%; with OVCAR-4 it was less than 0%. In addition, the inhibition at 10 µM in the test with 786-0 is 18.7%; in the test with A498 it was 32%; in the test on CAKI-1, 5.5%; in the test with UO-31 it was 18.5%; in the test on MDA-MB231, 12.4%; in the test with DU-145 it was less than 0%. Further, the MIC with S. aureus ATCC 6538 was more than 20 µM; in test [1] (Gram –ve strain), 0.19 µM (≈ 0.121 µg/mL); in test [1] (setting [2]), 0.13 to 0.8 µM (≈ 0.0825 to 0.508 µg/mL).
For `COc1ccc(/C=C2\SC(=O)N(CCCC(=O)N3CCN(c4cc5c(cc4F)c(=O)c(C(=O)O)cn5C4CC4)CC3)C2=O)cc1OC` [3f], the inhibition at 10 µM in the test with CCRF-CEM was less than 0%; in the test with K-562, 1.1%; in the test on SR it was 19.5%; in the test with A549/ATCC it was 1.3%; in the test with EKVX it was 10.6%; in the test with SF-268, less than 0%. The inhibition at 10 µM was 4.4% in the test with SF-539; 0.9% in the test with SNB-19; less than 0% in the test with M14; less than 0% in the test on MDA-MB-435; less than 0% in the test with SK-MEL-28; less than 0% with OVCAR-4. The inhibition at 10 µM in the test with 786-0 is 2.4%; in the test on A498, 15.5%; in the test with CAKI-1, 1.7%; in the test on UO-31, 14.5%; in the test with MDA-MB231, 0.1%; with DU-145 it was less than 0%. The MIC (in the test on S. aureus ATCC 6538; in test [1] (setting [2])) was more than 20 µM each time.
Take `O=C(O)c1cn(C2CC2)c2cc(N3CCN(C(=O)CCCN4C(=O)S/C(=C\c5ccc(F)cc5)C4=O)CC3)c(F)cc2c1=O` [3i]: the inhibition at 10 µM in the test on CCRF-CEM was 4.2%; with K-562, less than 0%; in the test on SR it was 3.6%; in the test with A549/ATCC, 10.4%; in the test on EKVX it was less than 0%; in the test with SF-268, 3.1%. The inhibition at 10 µM with SF-539 came to 5.8%; with SNB-19, 6.2%; with M14 it was 4.6%; in the test with MDA-MB-435, 1.6%; in the test on SK-MEL-28 it was 1.5%; in the test on OVCAR-4 it was 0.5%. The inhibition at 10 µM with 786-0 was 18.2%; with A498 it was 41.5%; with CAKI-1, 4.9%; with UO-31, 21.7%; in the test with MDA-MB231, 26.4%; with DU-145, less than 0%. In addition, the “Growth Inhibition (%)” value in the test with A498 was found to be 41.5%. Also, the “Minimum inhibitory concentrations (MIC, µM) S. aureus ATCC 6538” value in the test with S. aureus ATCC 6538 is on record as “did not show considerable anti-bacterial activity”. The MIC (in the test with S. aureus ATCC 6538; in test [1] (setting [2])) was more than 20 µM each time.
With `O=C(O)c1cn(C2CC2)c2cc(N3CCN(C(=O)CCCN4C(=O)SC(=Cc5cccc6ccccc56)C4=O)CC3)c(F)cc2c1=O` [3j, 1-cyclopropyl-6-fluoro-7-[4-[4-[5-(1-naphthylmethylene)-2,4-dioxo-thiazolidin-3-yl]butanoyl]piperazin-1-yl]-4-oxo-quinoline-3-carboxylic acid], the inhibition at 10 µM with CCRF-CEM is less than 0%; in the test on K-562, 10.9%; in the test on SR, 14.1%; in the test with A549/ATCC it was 9.3%; in the test with EKVX, 9.1%; in the test with SF-268 it was 29.1%. The inhibition at 10 µM was found to be 9.9% with SF-539; 20.1% in the test with SNB-19; 16.7% in the test on M14; 12.8% in the test with MDA-MB-435; 4.5% in the test on SK-MEL-28; 16.4% in the test with OVCAR-4. For the same compound, the inhibition at 10 µM in the test with 786-0 amounted to 18.5%; in the test on A498, 50.9%; with CAKI-1, 18%; in the test on UO-31, 48.1%; with MDA-MB231, 25.2%; in the test on DU-145, 21.9%. In addition, the “Growth Inhibition (%)” value in the test on A498 was 50.9%. Also, the MIC (with S. aureus ATCC 6538; in test [1] (setting [2])) was more than 20 µM throughout.
